Measured values published in patent US9302999B2, “Substituted triazoles as herbicides” (E. I. DU PONT DE NEMOURS AND COMPANY, priority 2012, dated 2016).

Assays:
[1] = system: winter wheat (Triticum aestivum); assay: Test C pre-/postemergence: winter wheat; type: in vivo
Method in brief: (§1)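 Preemergence on seeds in loam/sand, postemergence on 2–18 cm (1–4-leaf) plants in peat-based medium; compounds in non-phytotoxic solvent with surfactant. After 13–15 days in greenhouse, visual rating versus controls, 0 (no effect) to 100 (complete control).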

wild oat (Avena fatua) = assay: Test C pre-/postemergence: wild oat; type: in vivo; conditions: Postemergence
Method in brief: as §1

[2] = system: pigweed (Amaranthus retroflexus); assay: Test C pre-/postemergence: pigweed; type: in vivo
Method in brief: as §1

Barnyardgrass [3] = assay: Test C postemergence: barnyardgrass; type: in vivo, Echinochloa crus-galli; conditions: 125 g ai/ha, scale 0 to 100, 0 no effect, 100 complete control
Description: Seeds of plant species selected from blackgrass (Alopecurus myosuroides), bromegrass, downy (downy bromegrass, Bromus tectorum), foxtail, green (green foxtail, Setaria viridis), ryegrass, Italian (Italian ryegrass, Lolium multiflorum), winter wheat (Triticum aestivum), wild oat (Avena fatua), galium (catchweed bedstraw, Galium aparine), bermudagrass (Cynodon dactylon), surinam grass (Brachiaria decumbens), cocklebur (common cocklebur, Xanthium strumarium), corn (Zea mays), large crabgrass (Digitaria sanguinalis), woolly cupgrass (Eriochloa villosa), foxtail, giant (giant foxtail, Setaria faberii), goosegrass (Eleusine indica), johnsongrass (Sorghum halepense), kochia (Kochia scoparia), lambsquarters (Chenopodium album), morningglory (Ipomoea coccinea), nightshade (eastern black nightshade, Solanum ptycanthum), nutsedge, yellow (yellow nutsedge, Cyperus esculentus), pigweed (Amaranthus retroflexus), ragweed (common ragweed, Ambrosia elation), soybean (Glycine max), common (oilseed) sunflower (Helianthus annuus), Russian thistle (Salsola kali) and velvetleaf (Abutilon theophrasti) were planted into a blend of loam soil and sand and treated preemergence with test chemicals formulated in a non-phytotoxic solvent mixture which included a surfactant.
At the same time, plants selected from these crop and weed species and also barley (winter barley, Hordeum vulgare), canarygrass (Phalaris minor), chickweed (common chickweed, Stellaria media) windgrass (Apera spica-venti) and deadnettle (henbit deadnettle, Lamium amplexicaule) were planted in pots containing Redi-Earth® planting medium (Scotts Company, 14111 Scottslawn Road, Marysville, Ohio 43041) comprising spaghnum peat moss, vermiculite, wetting agent and starter nutrients and treated with postemergence applications of test chemicals formulated in the same manner. Plants ranged in height from 2 to 18 cm (1- to 4-leaf stage) for postemergence treatments.
Treated plants and controls were maintained in a greenhouse for 13 to 15 days, after which time all species were compared to controls and visually evaluated. Plant response ratings, summarized in Table C, are based on a scale of 0 to 100 where 0 is no effect and 100 is complete control. A dash (-) response means no test result.

Barnyardgrass [4] = assay: Test C preemergence: barnyardgrass; type: in vivo, Echinochloa crus-galli
[5] = system: galium (catchweed bedstraw, Galium aparine); assay: Test C pre-/postemergence: galium; type: in vivo
Method in brief: as §1

[6] = system: barnyardgrass (Echinochloa crus-galli); assay: Test B flooded paddy: barnyardgrass; type: in vivo; conditions: Flood, applied to paddy water at 2-leaf stage, visually evaluated after 13 to 15 days
Method in brief: (§2)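 Plants were grown to the 2-leaf stage, then pots were flooded to 3 cm above the soil and compounds were applied directly into the paddy water. Water depth was held for the whole test; after 13 to 15 days in a greenhouse, injury was visually rated against untreated controls (0 = no effect, 100 = complete control).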

[7] = system: velvetleaf (Abutilon theophrasti); assay: Test C pre-/postemergence: velvetleaf; type: in vivo
Method in brief: as §1

rice (Oryza sativa) = assay: Test B flooded paddy: rice; type: in vivo; conditions: Flood, applied to paddy water at 2-leaf stage, visually evaluated after 13 to 15 days
Method in brief: as §2

[8] = system: velvetleaf (Abutilon theophrasti); assay: Test A pre-/postemergence: velvetleaf; type: in vivo
Method in brief: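 Compounds, formulated with surfactant in non-phytotoxic solvent, were applied as a directed soil spray preemergence and as postemergence sprays to 2–10 cm, one- to two-leaf seedlings grown in loam soil blended with sand; visual injury, 0–100, assessed ~10 days post-treatment against untreated controls.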

[9] = Postemergence, 31 g ai/ha, scale 0 to 100 (0 no effect, 100 complete control)
[10] = Postemergence, 62 g ai/ha, scale 0 to 100 (0 no effect, 100 complete control)
[11] = Postemergence, 125 g ai/ha, scale 0 to 100, 0 no effect, 100 complete control
[12] = Postemergence, 250 g ai/ha, scale 0 to 100 (0 no effect, 100 complete control)
[13] = Preemergence, 31 g ai/ha, scale 0 (no effect) to 100 (complete control)
[14] = Preemergence, 62 g ai/ha, scale of 0 to 100, 0 is no effect, 100 is complete control
[15] = Preemergence, 125 g ai/ha, scale 0 to 100, 0 no effect, 100 complete control
[16] = Preemergence, 250 g ai/ha, scale 0 to 100, 0 no effect, 100 complete control
[17] = 31 g ai/ha, scale 0 to 100 (0 no effect, 100 complete control)
[18] = 62 g ai/ha, scale 0 to 100 (0 no effect, 100 complete control)
[19] = 125 g ai/ha, scale 0 to 100, 0 no effect, 100 complete control
[20] = 62 g ai/ha, scale of 0 to 100, 0 is no effect, 100 is complete control
[21] = Postemergence, 125 g ai/ha, 0 to 100 scale, 0 is no effect, 100 is complete control
[22] = Preemergence, 125 g ai/ha, 0 to 100 scale where 0 is no effect and 100 is complete control
[23] = Postemergence, 250 g ai/ha, scale 0 to 100
[24] = Preemergence, 31 g ai/ha, scale of 0 to 100, 0 is no effect, 100 is complete control

## CCc1nn(-c2ccc(C(F)(F)F)c(F)c2)nc1Oc1ccnc(C(F)(F)F)c1 [Compound 183]
[1]; [9]
  Plant response rating, Wheat: 10
[1]; [10]
  Plant response rating, Wheat: 20
[1]; [11]
  Plant response rating, Wheat: 20
[1]; [12]
  Plant response rating, Wheat: 30
[1]; [13]
  Plant response rating, Wheat: 5
[1]; [14]
  Plant response rating, Wheat: 10
[1]; [15]
  Plant response rating, Wheat: 35
[1]; [16]
  Plant response rating, Wheat: 40
Wild oat (Avena fatua); [17]
  Plant response rating, Oat, Wild: 30
Wild oat (Avena fatua); [18]
  Plant response rating, Oat, Wild: 40
Wild oat (Avena fatua); [19]
  Plant response rating, Oat, Wild: 55
Wild oat (Avena fatua); 250 g ai/ha, scale 0 to 100 (0 no effect, 100 complete control)
  Plant response rating, Oat, Wild: 85
[2]; [9]
  Plant response rating, Pigweed: 100
[2]; [11]
  Plant response rating, Pigweed: 100
[2]; [12]
  Plant response rating, Pigweed: 100
[2]; [13]
  Plant response rating, Pigweed: 100
[2]; [14]
  Plant response rating, Pigweed: 100
[2]; [15]
  Plant response rating, Pigweed: 100
[2]; [16]
  Plant response rating, Pigweed: 100
Barnyardgrass [3]
  Plant response rating, Barnyardgrass: 80
Barnyardgrass [4]; 31 g ai/ha, scale 0 (no effect) to 100 (complete control)
  Plant response rating, Barnyardgrass: 40
Barnyardgrass [4]; [20]
  Plant response rating, Barnyardgrass: 95
Barnyardgrass [4]; [19]
  Plant response rating, Barnyardgrass: 100
[5]; [9]
  Plant response rating, Galium: 70
[5]; [10]
  Plant response rating, Galium: 70
[5]; [11]
  Plant response rating, Galium: 90
[5]; [12]
  Plant response rating, Galium: 90
[5]; [13]
  Plant response rating, Galium: 60
[5]; [14]
  Plant response rating, Galium: 100
[5]; [15]
  Plant response rating, Galium: 100
[5]; [16]
  Plant response rating, Galium: 100
[6]; 125 g ai/ha
  Plant response rating, Barnyardgrass (0 to 100 scale, 0 is no effect, 100 is complete control): 30
[7]; [9]
  Plant response rating, Velvetleaf: 75
[7]; [11]
  Plant response rating, Velvetleaf: 75
[7]; [12]
  Plant response rating, Velvetleaf: 75
[7]; [13]
  Plant response rating, Velvetleaf: 45
[7]; [14]
  Plant response rating, Velvetleaf: 55
[7]; [15]
  Plant response rating, Velvetleaf: 100
[7]; [16]
  Plant response rating, Velvetleaf: 100
Rice (Oryza sativa); 125 g ai/ha
  Plant response rating, Rice (0 to 100 scale, 0 is no effect, 100 is complete control): 45
[8]; [21]
  Plant response rating, Velvetleaf: 100
[8]; Postemergence, 500 g ai/ha, 0 to 100 scale, 0 is no effect, 100 is complete control
  Velvetleaf plant response rating: 100
[8]; [22]
  Plant response rating, Velvetleaf: 70
[8]; Preemergence, 500 g ai/ha, 0 to 100 scale (0 no effect, 100 complete control)
  Plant response rating, Velvetleaf: 80

## Cc1nn(-c2ccc(F)c(C(F)(F)F)c2)nc1Cc1ccnc(C(F)(F)F)c1 [Compound 156]
[1]; [9]
  Plant response rating, Wheat: 5
[1]; [10]
  Plant response rating, Wheat: 15
[1]; [11]
  Plant response rating, Wheat: 25
[1]; [23]
  Plant response rating, Wheat: 30
[1]; [14]
  Plant response rating, Wheat: 5
[1]; [15]
  Plant response rating, Wheat: 20
[1]; [16]
  Plant response rating, Wheat: 35
Wild oat (Avena fatua); [17]
  Plant response rating, Oat, Wild: 35
Wild oat (Avena fatua); [18]
  Plant response rating, Oat, Wild: 50
Wild oat (Avena fatua); [19]
  Plant response rating, Oat, Wild: 50
Wild oat (Avena fatua); 250 g ai/ha, scale 0 to 100
  Plant response rating, Oat, Wild: 70
[2]; [9]
  Plant response rating, Pigweed: 75
[2]; [10]
  Plant response rating, Pigweed: 90
[2]; [11]
  Plant response rating, Pigweed: 95
[2]; [23]
  Plant response rating, Pigweed: 100
[2]; [24]
  Plant response rating, Pigweed: 100
[2]; [14]
  Plant response rating, Pigweed: 100
[2]; [15]
  Plant response rating, Pigweed: 100
[2]; [16]
  Plant response rating, Pigweed: 100
Barnyardgrass [3]
  Plant response rating, Barnyardgrass: 40
Barnyardgrass [4]; 31 g ai/ha, scale of 0 to 100, 0 is no effect, 100 is complete control
  Plant response rating, Barnyardgrass: 85
Barnyardgrass [4]; [20]
  Plant response rating, Barnyardgrass: 90
Barnyardgrass [4]; [19]
  Plant response rating, Barnyardgrass: 90
[5]; [9]
  Plant response rating, Galium: 80
[5]; [10]
  Plant response rating, Galium: 90
[5]; [11]
  Plant response rating, Galium: 90
[5]; [23]
  Plant response rating, Galium: 95
[5]; [24]
  Plant response rating, Galium: 85
[5]; [14]
  Plant response rating, Galium: 100
[5]; [15]
  Plant response rating, Galium: 100
[5]; [16]
  Plant response rating, Galium: 100
[6]; 250 g ai/ha
  Plant response rating, Barnyardgrass (0 to 100 scale, 0 is no effect, 100 is complete control): 75
[7]; [9]
  Plant response rating, Velvetleaf: 45
[7]; [10]
  Plant response rating, Velvetleaf: 50
[7]; [11]
  Plant response rating, Velvetleaf: 60
[7]; [23]
  Plant response rating, Velvetleaf: 80
[7]; [24]
  Plant response rating, Velvetleaf: 5
[7]; [14]
  Plant response rating, Velvetleaf: 40
[7]; [15]
  Plant response rating, Velvetleaf: 40
[7]; [16]
  Plant response rating, Velvetleaf: 100
Rice (Oryza sativa); 250 g ai/ha
  Plant response rating, Rice (0 to 100 scale, 0 is no effect, 100 is complete control): 50
[8]; [21]
  Plant response rating, Velvetleaf: 100
[8]; Postemergence, 500 g ai/ha, visual rating on 0 to 100 scale (0 no effect, 100 complete control), approximately ten days
  Velvetleaf plant response rating: 100
[8]; [22]
  Plant response rating, Velvetleaf: 30
